Reference: US20060189581A1, “Compounds and methods for treating transplant rejection” (AtheroGenics, Inc., priority 1997, published 2006)
“Also recorded” adds a separate entry of the source. Where two headings read alike, the source gives them in different places.

Experiments:
[1] = test system: ACI rat aorta transplanted into Lewis rat (graft arteriosclerosis); assay: Rat aortic allograft model (graft arteriosclerosis); format: in vivo
Description: Compound A was evaluated for graft arteriosclerosis resulting from aortic heterotropic transplantation. This is a model of graft arteriopathy which is the major obstacle to long term success of solid organ transplantation.
Donor descending aortas from ACI rats were heterotypically transplanted into Lewis rat abdomens in end-to-end fashion with minimal ischemic time. 55 rats were assigned to five groups as follows:
(§1) Compound A was administered subcutaneously to recipient animals three days prior to the surgery and once daily for 90 days thereafter. […] Thereafter, the dose was reduced to 30 mg/kg/d for 6 days and then further reduced to 5 mg/kg/d for the remainder of the study.
(§2) On day 90, the allograft segment was removed, fixed in 10% buffered formalin and paraffin embedded. Sections were stained with von Geisson's elastic stain, and intima-to-media area (IM) ratio and percent luminal narrowing (% LN) were assessed by digital morphometry (See FIGS. 1 and 2). Blood was collected at regular intervals throughout the study and plasma evaluated for compound levels (See FIG. 3).

[2] = Plasma compound levels in the rat aortic allograft study; format: in vivo; settings: Lewis, subcutaneous, after 90 days of dosing, read-out: trough plasma levels
Description: as §1, §2

CC(C)(Sc1cc(C(C)(C)C)c(O)c(C(C)(C)C)c1)Sc1cc(C(C)(C)C)c(OCCCC(=O)O)c(C(C)(C)C)c1 [Compound A, 4-[4-[[1-[[3,5-bis(1,1-dimethylethyl)-4-hydroxyphenyl]thio]-1-methylethyl]thio]-2,6-bis(1,1-dimethylethyl)phenoxy]butyric acid]
IM ratio and % LN compared to the vehicle group ([1]; 20 mg and 40/30/5 mg/kg/d doses, day 90): significantly lower
efficacy and gross toxicity ([1]; 20 mg/kg/d subcutaneously): efficacious without grossly discernable toxic side effects
adverse findings (body weight, skin) ([1]; 40 mg/kg/d subcutaneously, until the dose was reduced): failure to gain weight and skin irritation; also recorded: initially lost weight
inhibition of aortic neointimal growth ([1]; 10, 20 and 40/30/5 mg/kg/d subcutaneously, 90 days): dose-dependent inhibition
tolerability of treatment ([1]; 10 and 20 mg/kg/d subcutaneously, animals regained weight post surgery): well tolerated
percent inhibition of the % LN (percent luminal narrowing) ([1]; 40/30/5 mg/kg/d subcutaneously, day 90, compared to vehicle control): 52%
concentration at 90 days ([2]; 10 mg/kg/d subcutaneously): 10 µM
concentration at 90 days ([2]; 20 mg/kg/d subcutaneously): 18 µM
concentration at 90 days ([2]; 40/30/5 mg/kg/d subcutaneously): 28 µM
